Drawing on paper PMC10904284 (iScience, 2024), this text covers Ka for 1 substance.

The test has as its target CLso STP (Candidatus Liberibacter solanacearum, UniProt A0A094YYW1). Format: binding.

CLso STP, sequence (A0A094YYW1 1-207): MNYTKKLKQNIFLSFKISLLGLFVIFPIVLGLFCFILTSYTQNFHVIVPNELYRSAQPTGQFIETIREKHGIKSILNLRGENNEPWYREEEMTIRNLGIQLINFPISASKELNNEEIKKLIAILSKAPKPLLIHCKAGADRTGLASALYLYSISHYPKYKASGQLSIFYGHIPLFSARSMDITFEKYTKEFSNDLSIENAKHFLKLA

The substance Glucose 6-phosphate [G6P] registered a Ka of 17.58 M⁻¹ s⁻¹.
